Test results as given in the kinase profiling compilation of Christmann-Franck et al. (2016).

Key:
Assay in all cases: KINOMEscan competition binding
Details in all cases: compound 10.0 µM
[1] = tested on: KIT (human), P10721 [V559D/V654A]
[2] = tested on: RET (human), P07949 [M918T]
[3] = tested on: FLT3 (human), P36888 [D835H]
[4] = tested on: EGFR (human), P00533 [747-751 del / S ins]
[5] = tested on: RET (human), P07949 [V804M]
[6] = tested on: ABL1 (human), P00519 [H396P]
[7] = tested on: ABL1 (human), P00519 [Y253F]
[8] = tested on: EGFR (human), P00533 [752-759 del]
[9] = tested on: EGFR (human), P00533 [T790M/L858R]
[10] = tested on: FLT3 (human), P36888 [R834Q]
[11] = tested on: EGFR (human), P00533 [T790M]
[12] = tested on: MET (human), P08581 [Y1235D]
[13] = tested on: KIT (human), P10721 [L576P]
Chain of KIT (human), P10721 [L576P] (P10721 whole entry L576P, looked up): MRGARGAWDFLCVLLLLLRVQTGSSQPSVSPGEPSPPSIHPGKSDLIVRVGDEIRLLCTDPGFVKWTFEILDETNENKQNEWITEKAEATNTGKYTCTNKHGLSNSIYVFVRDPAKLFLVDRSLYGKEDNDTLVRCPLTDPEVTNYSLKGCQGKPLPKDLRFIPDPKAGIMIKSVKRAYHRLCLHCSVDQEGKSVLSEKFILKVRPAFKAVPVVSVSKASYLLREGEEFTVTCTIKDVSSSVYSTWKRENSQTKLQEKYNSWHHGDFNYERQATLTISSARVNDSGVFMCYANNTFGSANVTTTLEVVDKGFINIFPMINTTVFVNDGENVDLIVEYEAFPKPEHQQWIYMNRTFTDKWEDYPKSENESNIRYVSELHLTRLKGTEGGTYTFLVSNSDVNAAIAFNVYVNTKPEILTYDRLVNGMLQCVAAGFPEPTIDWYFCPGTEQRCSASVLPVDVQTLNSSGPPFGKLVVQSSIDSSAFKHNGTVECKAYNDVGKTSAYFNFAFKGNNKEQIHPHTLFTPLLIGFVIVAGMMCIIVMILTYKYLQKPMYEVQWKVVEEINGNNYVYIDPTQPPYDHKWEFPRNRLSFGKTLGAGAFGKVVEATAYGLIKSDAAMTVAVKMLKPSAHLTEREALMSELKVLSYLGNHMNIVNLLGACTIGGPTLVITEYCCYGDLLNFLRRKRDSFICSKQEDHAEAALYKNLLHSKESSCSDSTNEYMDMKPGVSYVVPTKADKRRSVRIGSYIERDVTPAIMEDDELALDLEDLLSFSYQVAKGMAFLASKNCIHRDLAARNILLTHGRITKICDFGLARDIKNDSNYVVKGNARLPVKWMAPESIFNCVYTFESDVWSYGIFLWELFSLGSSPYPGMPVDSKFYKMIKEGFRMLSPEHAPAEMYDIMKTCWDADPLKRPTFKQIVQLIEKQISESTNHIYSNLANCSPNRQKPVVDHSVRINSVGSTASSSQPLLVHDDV

Chain of KIT (human), P10721 [V559D/V654A] (P10721 whole entry V559D/V654A, looked up): as the sequence (P10721 whole entry L576P, looked up) above, with V559D, P576L, V654A counted along it
Chain of RET (human), P07949 [M918T] (P07949 whole entry M918T, looked up): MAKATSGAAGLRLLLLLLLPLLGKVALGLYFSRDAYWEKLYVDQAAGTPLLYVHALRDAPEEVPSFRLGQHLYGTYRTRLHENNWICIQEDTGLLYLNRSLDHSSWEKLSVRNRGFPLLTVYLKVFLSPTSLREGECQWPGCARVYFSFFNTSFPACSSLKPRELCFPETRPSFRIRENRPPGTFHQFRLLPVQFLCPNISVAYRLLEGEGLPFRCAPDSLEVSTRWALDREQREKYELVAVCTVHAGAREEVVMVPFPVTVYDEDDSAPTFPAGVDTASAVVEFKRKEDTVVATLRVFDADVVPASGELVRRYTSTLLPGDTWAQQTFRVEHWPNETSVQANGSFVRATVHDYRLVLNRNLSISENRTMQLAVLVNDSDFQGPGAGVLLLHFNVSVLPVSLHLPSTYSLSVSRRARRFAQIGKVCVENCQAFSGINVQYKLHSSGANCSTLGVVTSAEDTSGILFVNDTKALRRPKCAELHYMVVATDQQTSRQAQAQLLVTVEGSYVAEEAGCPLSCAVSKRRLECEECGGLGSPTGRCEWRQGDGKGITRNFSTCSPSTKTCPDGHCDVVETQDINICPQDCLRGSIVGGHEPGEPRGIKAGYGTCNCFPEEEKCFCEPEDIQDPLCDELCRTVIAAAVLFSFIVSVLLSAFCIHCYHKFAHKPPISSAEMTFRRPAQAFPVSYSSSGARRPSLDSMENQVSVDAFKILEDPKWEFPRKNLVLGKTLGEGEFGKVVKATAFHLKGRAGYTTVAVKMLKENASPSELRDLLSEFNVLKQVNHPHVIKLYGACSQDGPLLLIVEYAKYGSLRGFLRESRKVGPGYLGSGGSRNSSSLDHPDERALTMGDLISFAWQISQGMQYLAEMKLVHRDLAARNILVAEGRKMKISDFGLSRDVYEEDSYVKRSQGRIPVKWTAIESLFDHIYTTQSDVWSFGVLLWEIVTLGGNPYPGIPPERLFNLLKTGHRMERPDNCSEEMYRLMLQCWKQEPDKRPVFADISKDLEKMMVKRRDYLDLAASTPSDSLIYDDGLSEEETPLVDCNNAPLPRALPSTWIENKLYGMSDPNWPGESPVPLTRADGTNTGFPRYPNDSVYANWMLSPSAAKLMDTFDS
Chain of RET (human), P07949 [V804M] (P07949 whole entry V804M, looked up): as the sequence (P07949 whole entry M918T, looked up) above, with V804M, T918M counted along it

SMILES	kinase still bound, per cent of control [1]	kinase still bound, per cent of control [2]	kinase still bound, per cent of control [3]	kinase still bound, per cent of control [4]	kinase still bound, per cent of control [5]	kinase still bound, per cent of control [6]	kinase still bound, per cent of control [7]	kinase still bound, per cent of control [8]	kinase still bound, per cent of control [9]	kinase still bound, per cent of control [10]	kinase still bound, per cent of control [11]	kinase still bound, per cent of control [12]	kinase still bound, per cent of control [13]
CC[C@@H]1C(=O)N(C)c2cnc(Nc3ccc(C(=O)NC4CCN(C)CC4)cc3OC)nc2N1C1CCCC1	100%	100%	100%	–	100%	100%	100%	–	–	–	–	–	–
COc1ccc(N(C(=O)Oc2cc(C(=O)Nc3cccc(C(F)(F)F)c3)ccc2C)c2ccnc(Nc3ccc(N4CCN(C)CC4)cc3)n2)c(OC)c1	9%	0.3%	100%	0.4%	–	3.6%	1.3%	0.9%	–	–	–	–	–
COc1cc(C(=O)NC2CCN(C)CC2)ccc1Nc1ncc2c(n1)N(C1CCCC1)C(C)CC(=O)N2C (stereo unspecified)	100%	100%	100%	100%	100%	100%	100%	100%	–	–	–	–	–
O=C1Nc2ccc(I)cc2/C1=C/c1cc(Br)c(O)c(Br)c1	5.7%	100%	40%	50%	100%	–	81%	35%	98%	100%	65%	72%	6.6%
CNC(=O)Nc1ccc(-c2nc(N3CC4CCC(C3)O4)c3cnn(C4CCC5(CC4)OCCO5)c3n2)cc1	100%	73%	82%	50%	100%	–	99%	55%	100%	79%	68%	24%	85%
Cc1ccc(NC(=O)c2cccc(C(C)(C)C#N)c2)cc1Nc1ccc2ncn(C)c(=O)c2c1	1.2%	0.4%	60%	14%	0.15%	–	1.4%	17%	99%	100%	79%	100%	0.55%
CCc1nc(-c2cccc(C)c2)c(-c2ccnc(NC(=O)c3ccccc3)c2)s1	–	72%	–	–	94%	3%	26%	–	–	–	–	–	51%
C[C@@H](Oc1cc(-n2cnc3ccc(CN4CCN(C)CC4)cc32)sc1C(N)=O)c1ccccc1C(F)(F)F	100%	100%	10%	100%	100%	–	69%	100%	78%	20%	54%	98%	54%
COc1cc(C)c(Sc2cnc(NC(=O)c3ccc(CNC(C)C(C)C)cc3)s2)cc1C(=O)N1CCN(C(C)=O)CC1 (stereo unspecified)	100%	32%	14%	100%	100%	100%	100%	100%	–	–	–	–	–
Cc1cc([C@@H](C)Nc2ccccc2C(=O)O)c2nc(N3CCOCC3)cc(=O)n2c1	96%	100%	27%	100%	100%	–	100%	100%	99%	94%	100%	78%	95%
Cn1c(=O)n(-c2ccc(C(C)(C)C#N)cc2)c2c3cc(-c4cnc5ccccc5c4)ccc3ncc21	100%	100%	21%	100%	100%	100%	100%	100%	100%	–	–	–	100%

Second part, the compound after the results:

kinase still bound, per cent of control [1]	kinase still bound, per cent of control [2]	kinase still bound, per cent of control [3]	kinase still bound, per cent of control [4]	kinase still bound, per cent of control [5]	kinase still bound, per cent of control [6]	kinase still bound, per cent of control [7]	kinase still bound, per cent of control [8]	kinase still bound, per cent of control [9]	kinase still bound, per cent of control [10]	kinase still bound, per cent of control [11]	kinase still bound, per cent of control [12]	kinase still bound, per cent of control [13]	SMILES
100%	100%	11%	0.75%	100%	100%	100%	1.2%	–	–	–	–	–	COc1cc(N2CCC(C(N)=O)CC2)ccc1Nc1nc(N)c(Cl)c(Nc2ccccc2S(=O)(=O)C(C)C)n1
18%	100%	100%	100%	100%	100%	100%	100%	–	–	–	–	–	Cc1ccc(C(=O)Nc2cccc(C(F)(F)F)c2)cc1Nc1cncc(C(N)=O)c1
100%	100%	4%	0%	100%	100%	100%	0.25%	–	–	–	–	–	C=CC(=O)Nc1cccc(Oc2nc(Nc3ccc(N4CCN(C)CC4)cc3OC)ncc2Cl)c1
2.6%	0%	0.15%	0%	0%	–	0.25%	0%	77%	50%	9.9%	79%	0%	CCN1CCN(Cc2ccc(NC(=O)c3ccc(C)c(/C=C/c4cnc5[nH]ccc5c4OC)c3)cc2C(F)(F)F)CC1
94%	100%	99%	91%	100%	–	98%	89%	100%	100%	100%	100%	100%	COc1cc(N2CCN(C)CC2)ccc1Nc1nc(N)c(C(=O)c2c(Cl)cccc2Cl)s1
23%	100%	100%	100%	100%	–	63%	100%	97%	100%	100%	100%	2.3%	C=CC(=O)Nc1cc(NC(=O)c2ccc(C)c(NC(=O)c3ccno3)c2)cc(C(F)(F)F)c1
19%	40%	43%	75%	89%	–	27%	73%	90%	100%	48%	100%	6.4%	CCCS(=O)(=O)Nc1ccc(F)c(C(=O)c2c[nH]c3ncc(Cl)cc23)c1F
